Assay [1] deals with prostaglandin E receptor EP2 (Homo sapiens, UniProt P43116). Briefly: inhibition of 3H-PGE2 radioligand binding. It is filed as cell-based.
Assay [2] deals with prostaglandin E receptor EP4 (Homo sapiens, UniProt P35408). Briefly: inhibition of 3H-PGE2 radioligand binding. It is filed as cell-based.

pIC50: −log10 of the molar value.

As a reminder, the pIC50 is −log10 of the IC50, conventionally taken in molar units.

Chain of prostaglandin E receptor EP2 (P43116 whole entry): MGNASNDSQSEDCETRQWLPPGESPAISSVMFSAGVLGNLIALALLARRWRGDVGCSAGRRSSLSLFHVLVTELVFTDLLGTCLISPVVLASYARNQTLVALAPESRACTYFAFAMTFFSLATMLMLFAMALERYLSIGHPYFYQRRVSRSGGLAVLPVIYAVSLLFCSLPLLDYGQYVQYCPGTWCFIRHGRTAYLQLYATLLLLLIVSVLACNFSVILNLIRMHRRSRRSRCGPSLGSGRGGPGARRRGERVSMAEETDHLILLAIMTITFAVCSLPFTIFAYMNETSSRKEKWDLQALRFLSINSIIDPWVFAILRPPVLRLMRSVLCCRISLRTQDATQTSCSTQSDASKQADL
Chain of prostaglandin E receptor EP4 (P35408 whole entry): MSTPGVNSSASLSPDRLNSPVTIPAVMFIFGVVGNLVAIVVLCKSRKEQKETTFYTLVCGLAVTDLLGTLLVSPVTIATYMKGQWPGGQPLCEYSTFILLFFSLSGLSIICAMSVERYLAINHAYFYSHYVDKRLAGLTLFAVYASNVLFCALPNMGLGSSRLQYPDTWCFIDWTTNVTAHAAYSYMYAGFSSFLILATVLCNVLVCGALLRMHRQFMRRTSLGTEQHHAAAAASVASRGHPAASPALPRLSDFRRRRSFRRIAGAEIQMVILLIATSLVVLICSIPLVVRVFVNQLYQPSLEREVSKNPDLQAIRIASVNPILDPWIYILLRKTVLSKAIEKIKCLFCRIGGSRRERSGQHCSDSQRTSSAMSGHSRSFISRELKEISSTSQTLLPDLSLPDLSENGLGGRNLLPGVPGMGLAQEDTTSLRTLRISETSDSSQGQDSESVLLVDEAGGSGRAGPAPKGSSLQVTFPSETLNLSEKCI

Turning to `CO[C@@H]1[C@@H](O)[C@H](O[C@@H]2[C@@H](O)[C@H](O[C@H]3[C@H](O)[C@@H](O[C@@H]4OC[C@@H](O)[C@H](O)[C@H]4O)[C@H](O[C@H]4[C@H](OC5CC[C@]6(C)[C@H]7CCC89C(=O)O[C@@](C)(CCCC(C)C)C8[C@@H](OC(C)=O)C[C@@]9(C)C7=CC[C@H]6C5(C)C)OC[C@@H](OS(=O)(=O)O)[C@@H]4O)O[C@@H]3C)OC[C@H]2O)O[C@H](CO)[C@H]1O` (some centres unmarked) [FA, Frondoside A], the pIC50 in assay [1] was 4.78; in assay [2] it was roughly 5.43.

The values above are taken from PMC3725620 (Breast cancer research and treatment, 2011).
